According to US20070281992A1, “COMBINATION OF GYRASE B INHIBITORS AND PROTEIN SYNTHESIS INHIBITORS AND USES THEREOF” (priority 2006, published 2007):
Read-outs that look alike come from different tables or passages of the source.

Experiments:
[1] = test system: Methicillin-Susceptible Staphylococcus aureus Isolates; experiment: MIC assay (NCCLS broth dilution), MSSA clinical isolates; type: cell-based; details: for MIC: Staphylococcus aureus
Protocol: (§1) Antibiotics: novobiocin, tetracycline, minocycline, oxacillin, and vancomycin were all purchased from Sigma-Aldrich. Linezolid was obtained from Pfizer, Inc. Novobiocin/tetracycline and novobiocin/minocycline were tested in a 2.5:1 ratio to mimic the serum levels. (Vavra, J. J., 1967, Development of resistance to novobiocin, tetracycline, and novobiocin-tetracycline combinations in Staphylococcus aureus populations, J. Bacteriol 93(3):801). Compounds were tested across a concentration range consisting of 11 two-fold serial dilutions of test agent.
(§2) Stock solutions were prepared in sterile deionized water; novobiocin stock concentration was 1600 μg/mL and all other drugs stock solutions were prepared at 640 μg/mL. The stock solutions were allowed to sit at room temperature for one hour to auto-sterilize prior to use in the test. All compounds were in solution in water. The control agent was vancomycin hydrochloride, Sigma Chemical Lot # 015K0825.
(§3) The test organisms for the assay were 52 MSSA, 52 MRSA, 8 VISA, 7 VISE, and 3 LRSA isolates. Quality control strains included Staphylococcus aureus 0100 (ATCC 29213) and Enterococcus faecalis (ATCC 29212).
(§4) The MIC assay was performed according to published NCCLS guidelines. (National Committee for Clinical Laboratory Standards, Methods for Dilution Antimicrobial Susceptibility Tests for Bacteria that Grow Aerobically; Approved Standard-Sixth Edition, NCCLS Document M7-A6 [ISBN 1-56238-486-4], NCCLS, 940 West Valley Road, Suite 1400, Wayne, Pa. 19087-1898 USA, 2003). The test medium was Mueller Hinton II Broth for all organisms.

[2] = test system: Staphylococcus aureus 0100 (ATCC 29213); experiment: MIC assay, quality control strain S. aureus ATCC 29213; type: cell-based; details: ATCC29213, read-out: Minimal Inhibitory Concentration, quality control, S. aureus ATCC 29213, repeat runs 22FEB06-09MAR06, combinations at 2.5:1
Protocol: as §1, §2, §3, §4

[3] = test system: Enterococcus faecalis (ATCC 29212); details: E. faecalis ATCC 29212; accepted quality control range; cited from earlier work
[4] = test system: Staphylococcus aureus 0100 (ATCC 29213); details: S. aureus ATCC 29213; accepted quality control range; cited from earlier work

CN[C@H](CC(C)C)C(=O)N[C@H]1C(=O)N[C@@H](CC(N)=O)C(=O)N[C@H]2C(=O)N[C@H]3C(=O)N[C@H](C(=O)N[C@H](C(=O)O)c4cc(O)cc(O)c4-c4cc3ccc4O)[C@H](O)c3ccc(c(Cl)c3)Oc3cc2cc(c3O[C@@H]2O[C@H](CO)[C@@H](O)[C@H](O)[C@H]2O[C@H]2C[C@](C)(N)[C@H](O)[C@H](C)O2)Oc2ccc(cc2Cl)[C@H]1O [VA, vancomycin]
MIC Range ([1]; 52 MSSA isolates, Mueller Hinton II Broth, combinations at 2.5:1, given as NB/partner): .5 to 1 µg/mL | MIC ([1]; read-out: Minimal Inhibitory Concentration, MSSA isolate 133, 03MAR06): 0.5 µg/mL | MIC ([1]; read-out: Minimal Inhibitory Concentration, MSSA isolate 134, 03MAR06): 0.5 µg/mL | MIC ([1]; read-out: Minimal Inhibitory Concentration, MSSA isolate 135, 03MAR06): 1 µg/mL | MIC ([1]; read-out: Minimal Inhibitory Concentration, MSSA isolate 753, 22FEB06): 0.5 µg/mL | MIC ([1]; read-out: Minimal Inhibitory Concentration, MSSA isolate 754, 22FEB06): 0.5 µg/mL | MIC ([1]; read-out: Minimal Inhibitory Concentration, MSSA isolate 754, 24FEB06): 0.5 µg/mL | MIC ([1]; read-out: Minimal Inhibitory Concentration, MSSA isolate 755, 22FEB06): 1 µg/mL | MIC ([1]; read-out: Minimal Inhibitory Concentration, MSSA isolate 756, 03MAR06): 0.5 µg/mL | MIC ([1]; read-out: Minimal Inhibitory Concentration, MSSA isolate 779, 22FEB06): 0.5 µg/mL | MIC ([1]; read-out: Minimal Inhibitory Concentration, MSSA isolate 780, 03MAR06): 1 µg/mL | MIC ([1]; read-out: Minimal Inhibitory Concentration, MSSA isolate 781, 03MAR06): 0.5 µg/mL | MIC ([1]; read-out: Minimal Inhibitory Concentration, MSSA isolate 782, 22FEB06): 1 µg/mL | MIC ([1]; read-out: Minimal Inhibitory Concentration, MSSA isolate 783, 22FEB06): 1 µg/mL | MIC ([1]; read-out: Minimal Inhibitory Concentration, MSSA isolate 784, 22FEB06): 0.5 µg/mL | MIC ([1]; read-out: Minimal Inhibitory Concentration, MSSA isolate 785, 22FEB06): 0.5 µg/mL | MIC ([1]; read-out: Minimal Inhibitory Concentration, MSSA isolate 786, 22FEB06): 0.5 µg/mL | MIC ([1]; read-out: Minimal Inhibitory Concentration, MSSA isolate 787, 22FEB06): 0.5 µg/mL | MIC ([1]; read-out: Minimal Inhibitory Concentration, MSSA isolate 788, 22FEB06): 0.5 µg/mL | MIC ([1]; read-out: Minimal Inhibitory Concentration, MSSA isolate 789, 24FEB06): 1 µg/mL | MIC ([1]; read-out: Minimal Inhibitory Concentration, MSSA isolate 790, 24FEB06): 0.5 µg/mL | MIC ([1]; read-out: Minimal Inhibitory Concentration, MSSA isolate 791, 24FEB06): 0.5 µg/mL | MIC ([1]; read-out: Minimal Inhibitory Concentration, MSSA isolate 792, 03MAR06): 0.5 µg/mL | MIC ([1]; read-out: Minimal Inhibitory Concentration, MSSA isolate 793, 24FEB06): 0.5 µg/mL | MIC ([1]; read-out: Minimal Inhibitory Concentration, MSSA isolate 794, 24FEB06): 1 µg/mL | MIC ([1]; read-out: Minimal Inhibitory Concentration, MSSA isolate 994, 22FEB06): 1 µg/mL | MIC ([1]; read-out: Minimal Inhibitory Concentration, MSSA isolate 995, 03MAR06): 1 µg/mL | MIC ([1]; read-out: Minimal Inhibitory Concentration, MSSA isolate 996, 22FEB06): 0.5 µg/mL | MIC ([1]; read-out: Minimal Inhibitory Concentration, MSSA isolate 997, 22FEB06): 1 µg/mL | MIC ([1]; read-out: Minimal Inhibitory Concentration, MSSA isolate 998, 03MAR06): 1 µg/mL | MIC ([1]; read-out: Minimal Inhibitory Concentration, MSSA isolate 999, 22FEB06): 0.5 µg/mL | MIC ([1]; read-out: Minimal Inhibitory Concentration, MSSA isolate 1000, 24FEB06): 1 µg/mL | MIC ([1]; read-out: Minimal Inhibitory Concentration, MSSA isolate 1001, 24FEB06): 1 µg/mL | MIC ([1]; read-out: Minimal Inhibitory Concentration, MSSA isolate 1002, 24FEB06): 0.5 µg/mL | MIC ([1]; read-out: Minimal Inhibitory Concentration, MSSA isolate 1003, 03MAR06): 0.5 µg/mL | MIC ([1]; read-out: Minimal Inhibitory Concentration, MSSA isolate 1005, 24FEB06): 1 µg/mL | MIC ([1]; read-out: Minimal Inhibitory Concentration, MSSA isolate 1006, 24FEB06): 1 µg/mL | MIC ([1]; read-out: Minimal Inhibitory Concentration, MSSA isolate 1007, 24FEB06): 1 µg/mL | MIC ([1]; read-out: Minimal Inhibitory Concentration, MSSA isolate 1008, 24FEB06): 0.5 µg/mL | MIC ([1]; read-out: Minimal Inhibitory Concentration, MSSA isolate 1009, 24FEB06): 0.5 µg/mL | MIC ([1]; read-out: Minimal Inhibitory Concentration, MSSA isolate 1131, 24FEB06): 1 µg/mL | MIC ([1]; read-out: Minimal Inhibitory Concentration, MSSA isolate 1132, 03MAR06): 0.5 µg/mL | MIC ([1]; read-out: Minimal Inhibitory Concentration, MSSA isolate 1133, 24FEB06): 0.5 µg/mL | MIC ([1]; read-out: Minimal Inhibitory Concentration, MSSA isolate 1134, 24FEB06): 0.5 µg/mL | MIC ([1]; read-out: Minimal Inhibitory Concentration, MSSA isolate 1654, 03MAR06): 0.5 µg/mL | MIC ([1]; read-out: Minimal Inhibitory Concentration, MSSA isolate 1656, 03MAR06): 0.5 µg/mL | MIC ([1]; read-out: Minimal Inhibitory Concentration, MSSA isolate 1662, 03MAR06): 0.5 µg/mL | MIC ([1]; read-out: Minimal Inhibitory Concentration, MSSA isolate 1663, 03MAR06): 1 µg/mL | MIC ([1]; read-out: Minimal Inhibitory Concentration, MSSA isolate 1666, 03MAR06): 0.5 µg/mL | MIC ([1]; read-out: Minimal Inhibitory Concentration, MSSA isolate 1667, 03MAR06): 1 µg/mL | MIC ([1]; read-out: Minimal Inhibitory Concentration, MSSA isolate 1668, 03MAR06): 0.5 µg/mL | MIC ([1]; read-out: Minimal Inhibitory Concentration, MSSA isolate 1671, 03MAR06): 1 µg/mL | MIC ([1]; read-out: Minimal Inhibitory Concentration, MSSA isolate 1728, 03MAR06): 1 µg/mL | MIC ([1]; read-out: Minimal Inhibitory Concentration, MSSA isolate 1728, retest 09MAR06): 1 µg/mL | MIC [2]: 0.5 µg/mL | CLSI QC Range (MIC) [3]: 1 to 4 µg/mL | CLSI QC Range (MIC) [4]: 0.5 to 2 µg/mL
